14 compounds from patent publication US9879008B2, “2,3,4,6-tetra-substituted benzene-1,5-diamine derivatives, preparation method therefor and medicinal use thereof” (SHANGHAI HAIYAN PHARMACEUTICAL TECHNOLOGY CO., LTD., priority 2014, dated 2018) can be followed below.

Assay [1] relates to H1975 cell. In words: MTT cytostatic activity, H1975 cell.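 As to all read-outs here: cells in 96-well plates exposed to compound for 72 h, then given MTT for a further 4 h at 37 °C under 5% CO2.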 In kind it is cell-based. Particulars: MTT; for IC50: Homo sapiens, NCI-H1975, 72 h, read-out: H1975 cell (IC50/nM); for Selective inhibitory activity against cells [IC50(A431 cell)/IC50(H1975 cell)]: ratio of cell IC50 values.
Assay [2] relates to A431 cells. In words: ELISA assay for cell activity, EGF-treated A431 cells.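 Also: Serum-starved A431 cells, ELISA on lysates read as OD450 minus OD570, inhibition scaled between EGF-stimulated wells (0%) and unstimulated cell control (100%), DMSO 0.5% final.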 Type of assay: cell-based. To be noted: Homo sapiens, A-431, compound 1 h, then EGF 45 min. In general terms: An ELISA detects its analyte on a solid surface through an enzyme-linked reagent.
Assay [3] concerns A431 cell. In words: MTT cytostatic activity, A431 cell. In kind it is cell-based. Particulars: Homo sapiens, A-431; MTT, 72 h; read-out: A431 cell (IC50/nM).
Assay [4] relates to NIH3T3 cell. In words: MTT cytotoxicity against NIH3T3 cells. In kind it is cell-based. To be noted: Mus musculus, NIH3T3; cytotoxicity, MTT, 72 h; read-out: MTT assay against NIH3T3 cell (IC50/nM). On the technique in general: Tetrazolium assays rely on reduction of a dye to a coloured formazan, in cell work by metabolically active cells.
For assay [5], the system named is H1975 cells. In words: ELISA assay for cell activity of EGFR T790M inhibitor, H1975 cells. Particulars: for Selective inhibitory activities against cell [IC50(A431 cell)/IC50(H1975 cell)]: ELISA, ratio of cell IC50 values; for IC50: Homo sapiens, NCI-H1975, 1 h, read-out: H1975 cell (IC50/nM).
Assay [6] concerns the target T1, wild-type EGFR kinase (Homo sapiens, UniProt P00533).
T1 construct: purchased Invitrogen PV3872
In words: z-lyte inhibition test against wild-type EGFR kinase.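 Also: reaction volume 10 µL holding 0.8 ng/µL enzyme and 2 µM Tyr04 substrate, with DMSO at 2% once compounds are present.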 Type of assay: biochemical. Particulars: 10 μM ATP, read-out: EGFR WT (IC50/nM).

T1 sequence (P00533 25-1210): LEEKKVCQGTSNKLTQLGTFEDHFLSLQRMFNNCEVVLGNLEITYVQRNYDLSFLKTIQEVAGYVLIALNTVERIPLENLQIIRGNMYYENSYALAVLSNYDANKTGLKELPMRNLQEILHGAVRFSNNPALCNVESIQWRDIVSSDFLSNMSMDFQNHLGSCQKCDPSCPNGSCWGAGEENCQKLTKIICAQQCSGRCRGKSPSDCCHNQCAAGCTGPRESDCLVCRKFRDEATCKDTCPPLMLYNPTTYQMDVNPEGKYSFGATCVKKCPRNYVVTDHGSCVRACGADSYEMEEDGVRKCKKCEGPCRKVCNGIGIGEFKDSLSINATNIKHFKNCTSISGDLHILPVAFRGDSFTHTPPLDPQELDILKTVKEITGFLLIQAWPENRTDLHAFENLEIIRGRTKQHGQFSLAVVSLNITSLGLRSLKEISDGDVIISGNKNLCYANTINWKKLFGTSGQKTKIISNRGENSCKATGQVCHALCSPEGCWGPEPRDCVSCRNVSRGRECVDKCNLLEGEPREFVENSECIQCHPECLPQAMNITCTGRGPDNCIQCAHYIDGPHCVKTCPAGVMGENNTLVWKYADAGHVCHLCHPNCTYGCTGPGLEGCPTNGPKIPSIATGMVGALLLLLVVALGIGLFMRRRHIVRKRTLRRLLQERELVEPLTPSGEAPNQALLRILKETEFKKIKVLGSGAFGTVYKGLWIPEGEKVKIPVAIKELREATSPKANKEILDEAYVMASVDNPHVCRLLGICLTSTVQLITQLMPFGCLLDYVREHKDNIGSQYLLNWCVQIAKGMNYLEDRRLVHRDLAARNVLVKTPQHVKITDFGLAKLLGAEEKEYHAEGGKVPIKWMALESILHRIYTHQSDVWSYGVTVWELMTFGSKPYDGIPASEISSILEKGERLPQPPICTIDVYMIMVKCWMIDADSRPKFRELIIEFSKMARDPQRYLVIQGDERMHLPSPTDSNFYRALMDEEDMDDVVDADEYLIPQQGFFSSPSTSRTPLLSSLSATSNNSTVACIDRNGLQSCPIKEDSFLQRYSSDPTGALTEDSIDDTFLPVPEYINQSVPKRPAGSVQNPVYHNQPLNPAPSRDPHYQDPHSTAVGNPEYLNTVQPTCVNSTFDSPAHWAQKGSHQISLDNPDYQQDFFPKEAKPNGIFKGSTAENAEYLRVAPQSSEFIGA

As for `C=CC(=O)Nc1cc(Nc2ncc(Cl)c(OC3CCCN(S(C)(=O)=O)CC3)n2)c(OC)cc1N(C)CCN(C)C` (centres unmarked) [Compound J-1, N-(5-(5-chloro-4-(1-(methylsulfonyl)azacycloheptane-4-oxy)pyrimidine-2-amino)-2-((2-(dimethylamino)ethyl)(methyl)amino)-4-methoxylphenyl)acrylamide], the IC50 in assay [1] was 22 nM; in assay [2], 383 nM; in assay [3], 1140 nM; in assay [4] it was above 10000 nM; in assay [5], 13 nM; in assay [6], 20 nM. The “Selective inhibitory activity against cells [IC50(A431 cell)/IC50(H1975 cell)]” value (“Selective inhibitory activity” below) in assay [1] is listed as 52. Besides, in assay [5], the “Selective inhibitory activities against cell [IC50(A431 cell)/IC50(H1975 cell)]” value (“Selective inhibitory activities” for short) is given as 29.5.
`C=CC(=O)Nc1cc(Nc2nccc(OC3CN(S(=O)(=O)c4ccccc4)C3)n2)c(OC)cc1N(C)CCN(C)C` [Compound J-7, N-(2-((2-(dimethylamino)ethyl)(methyl)amino)-4-methoxy-5-(4-(1-(phenylsulfonyl)azetidine-3-oxy)pyrimidine-2-amino)phenyl)acrylamide]: the IC50 in assay [1] was 66 nM; in assay [2], 234 nM; in assay [3] it was 989 nM; in assay [4], above 10000 nM; in assay [5] it was 70 nM. For the same compound, the “Selective inhibitory activity” value in assay [1] was 15. Besides, in assay [5], the “Selective inhibitory activities” value is recorded as 3.3.
As to `C=CC(=O)Nc1cc(Nc2nccc(OC3CN(S(C)(=O)=O)C3)n2)c(OC)cc1N1CCC(N(C)C)CC1` [Compound J-10, N-(2-(4-(dimethylamino)piperidine-1-yl)-4-methoxy-5-(4-(1-(methylsulfonyl)azetidine-3-oxy)pyrimidine-2-amino)phenyl)acrylamide], the IC50 in assay [1] is 31 nM; in assay [3], 596 nM; in assay [4], above 10000 nM. The “Selective inhibitory activity” value in assay [1] is 19.2.
Regarding `C=CC(=O)Nc1cc(Nc2ncc(Cl)c(OC3CN(S(C)(=O)=O)C3)n2)c(OC)cc1N(C)CCN(C)C` [Compound J-11, N-(5-(5-chloro-4-(1-(methylsulfonyl)azetidine-3-oxy)pyrimidine-2amino)-2-((2-(dimethylamino)ethyl)(methyl)amino)-4-methoxyphenyl)acrylamide], the IC50 in assay [1] is 14 nM; in assay [2], 379 nM; in assay [3], 1580 nM; in assay [4], above 10000 nM; in assay [5], 38 nM; in assay [6] it was 12 nM. In assay [1], the “Selective inhibitory activity” value was 113. Moreover, the “Selective inhibitory activities” value in assay [5] stood at 10.
In the case of `C=CC(=O)Nc1cc(Nc2nccc(OC3CN(c4cccnc4)C3)n2)c(OC)cc1N(C)CCN(C)C` [Compound J-17], the IC50 in assay [1] is 121 nM; in assay [2] it was 155 nM; in assay [3] it was 1880 nM; in assay [4] it was above 10000 nM; in assay [5], 129 nM; in assay [6], 8 nM. In assay [1], the “Selective inhibitory activity” value turned out to be 15.5. In addition, the “Selective inhibitory activities” value in assay [5] was found to be 1.2.
Take `C=CC(=O)Nc1cc(Nc2nccc(OC3CN(c4cnc5c(ccn5C)c4)C3)n2)c(OC)cc1N1CCC(N(C)C)CC1` [Compound J-18]: the IC50 in assay [1] was 184 nM; in assay [2], 1100 nM; in assay [3], 2960 nM; in assay [5] it was 256 nM; in assay [6] it was 30 nM. Moreover, in assay [1], the “Selective inhibitory activity” value came out at 16.1. The “Selective inhibitory activities” value in assay [5] worked out at 4.3.
In the case of `C=CC(=O)Nc1cc(Nc2nccc(OC3CN(C(C)=O)C3)n2)c(OC)cc1N1CCC(N(C)C)CC1` [Compound J-20], the IC50 was 138 nM in assay [1], 5350 nM in assay [3], above 10000 nM in assay [4] and 69 nM in assay [6]. The “Selective inhibitory activity” value in assay [1] came to 38.8.
As to `C=CC(=O)Nc1cc(Nc2ncc(Cl)c(OC3CN(C(C)=O)C3)n2)c(OC)cc1N1CCC(N(C)C)CC1` [Compound J-27], the IC50 was 57 nM in assay [1]; 2550 nM in assay [2]; 3050 nM in assay [3]; 9830 nM in assay [4]; 30 nM in assay [5]; 114 nM in assay [6]. In assay [1], the “Selective inhibitory activity” value came to 53.6. Besides, the “Selective inhibitory activities” value in assay [5] is on record as 85.
Regarding `C=CC(=O)Nc1cc(Nc2ncc(Cl)c(OC3CN(C(C)=O)C3)n2)c(OC)cc1N(C)CCN(C)C` [Compound J-28], the IC50 in assay [1] is 11 nM; in assay [2], 649 nM; in assay [3], 3150 nM; in assay [4], above 10000 nM; in assay [5], 20 nM; in assay [6] it was 49 nM. The “Selective inhibitory activity” value in assay [1] was 286.3. Moreover, the “Selective inhibitory activities” value in assay [5] is given as 32.5.
`C=CC(=O)Nc1cc(Nc2ncc(F)c(OC3CN(S(C)(=O)=O)C3)n2)c(OC)cc1N1CCC(N(C)C)CC1` [Compound J-29]: the IC50 in assay [1] was 17 nM; in assay [2] it was 156 nM; in assay [3] it was 1100 nM; in assay [4], above 10000 nM; in assay [5], 23 nM; in assay [6], 6 nM. In addition, the “Selective inhibitory activity” value in assay [1] was 64.5. For the same compound, in assay [5], the “Selective inhibitory activities” value was 7.
As to `C=CC(=O)Nc1cc(Nc2ncc(F)c(OC3CN(C(C)=O)C3)n2)c(OC)cc1N1CCC(N(C)C)CC1` [Compound J-30], the IC50 is 121 nM in assay [1]; 1910 nM in assay [2]; 6010 nM in assay [3]; above 10000 nM in assay [4]; 113 nM in assay [5]; 95 nM in assay [6]. For the same compound, in assay [1], the “Selective inhibitory activity” value is 50. In assay [5], the “Selective inhibitory activities” value was found to be 17.
`C=CC(=O)Nc1cc(Nc2nccc(OC3CCCN(S(C)(=O)=O)CC3)n2)c(OC)cc1N(C)CCN(C)C` (centres unmarked) [Compound J-36]: the IC50 is 69 nM in assay [1], 3260 nM in assay [3], above 10000 nM in assay [4] and 17 nM in assay [6]. The “Selective inhibitory activity” value in assay [1] came to 47.3.
As for `C=CC(=O)Nc1cc(Nc2ncc(Cl)c(OC3CN(CCF)C3)n2)c(OC)cc1N1CCC(N(C)C)CC1` [Compound J-54], the IC50 in assay [1] is 92 nM; in assay [3], 6080 nM; in assay [4], above 10000 nM; in assay [6] it was 376 nM. For the same compound, the “Selective inhibitory activity” value in assay [1] is given as 66.1.
`C=CC(=O)Nc1cc(Nc2nccc(C3CN(c4cnc5c(cnn5C)c4)C3)n2)c(OC)cc1N(C)CCN(C)C` [compound 2, reference compound]: the IC50 was found to be 359 nM in assay [1], 1760 nM in assay [2], 5060 nM in assay [3] and 1340 nM in assay [5]. The “Selective inhibitory activity” value in assay [1] amounted to 14.1. Also, in assay [5], the “Selective inhibitory activities” value is on record as 1.3.
